# Laboratory results from publication PMC11714206, “Massively Parallel Screening of Toll/Interleukin‐1 Receptor (TIR)‐Derived Peptides Reveals Multiple Toll‐Like Receptors (TLRs)‐Targeting Immunomodulatory Peptides” (Advanced Science, 2024).
# Target: T1, MyD88^TIR (Homo sapiens, UniProt Q99836)
# T1 construct: MyD88 (residues 148–296); 6xHis; made in house; host or cells: E. coli BL21 (DE3)
# Assay: T‐Surf phage library (P8 and P3) selection against MyD88^TIR, four rounds, NGS read counts
# Format: binding
# Details: for P8_MyD88 Rank (after) / P8_MyD88 Rank (before): P8 library; for P3_MyD88 Rank (after) / P3_MyD88 Rank (before): P3 library; for Population: 4th round of selection against MyD88 TIR, share of NGS reads
# Outline: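 Read counts come from NGS of phage pools enriched over four selection rounds on the plate‐coated TIR domain (5 µg mL^−1). Each round: 1 h phage binding at room temperature after 0.2% BSA blocking, Tween washes, acid elution, amplification in E. coli TG1 with M13KO7 helper.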
# [1] = selection against MyD88, rank after grouping
# [2] = selection against MyD88, rank before grouping
# [3] = selection against MyD88 TIR, rank by count after grouping
# [4] = selection against MyD88 TIR, rank by count before grouping
# [5] = P8_MyD88: rank by NGS read count after grouping
# [6] = P8_MyD88: rank by NGS read count before grouping
# [7] = selection against MyD88, rank by count after grouping
# [8] = selection against MyD88, rank by count before grouping
# [9] = 4R selection against MyD88, rank after grouping
# [10] = 4R selection against MyD88, rank before grouping
# [11] = P8_MyD88: rank by count after grouping
# [12] = P8_MyD88: rank by count before grouping
# [13] = P8_MyD88 pool: P8 T-Surf phage library
# [14] = P3_MyD88: rank by count after grouping
# [15] = P3_MyD88: rank by count before grouping
# [16] = P3_MyD88 pool: P3 T-Surf phage library
# T1 sequence (Q99836 148-296): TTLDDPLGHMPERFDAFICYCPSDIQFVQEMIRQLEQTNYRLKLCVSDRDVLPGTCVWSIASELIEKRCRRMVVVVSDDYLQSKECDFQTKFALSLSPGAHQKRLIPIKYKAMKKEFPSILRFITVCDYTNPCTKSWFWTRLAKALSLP
substance,measurement,setting,value
VSHLIDAFERYGIMFFIDT,P8_MyD88 Rank (after),[1],572
same,P8_MyD88 Rank (before),[2],2260
DPQDLEWFYERLVSLFL,P8_MyD88 Rank (after),[3],244
same,P8_MyD88 Rank (before),[4],2882
DPQDLDWFYERLASGI,Rank (after),[5],882
same,Rank (before),[6],2782
EAFAVHVWSSKANSLVG,P3_MyD88 Rank (after),[7],727
same,P3_MyD88 Rank (before),[8],2193
WDFASTMEQLWARLYY,P8_MyD88 Rank (after),[1],498
same,P8_MyD88 Rank (before),[2],1587
SSIREGLWRQLELSKK,P3_MyD88 Rank (after),[9],665
same,P3_MyD88 Rank (before),[10],3277
NHDLDLPRGKAIKPEILG,P3_MyD88 Rank (after),[9],606
same,P3_MyD88 Rank (before),[10],3460
LIRAPSVHDFRGFVGI,P3_MyD88 Rank (after),[9],672
same,P3_MyD88 Rank (before),[10],2369
FIDFLFDAFETKGIFV,Rank (after),[11],103
same,Rank (before),[12],107
same,Population,[13],0.0216%
NGHESENIKEIVDTIL,P3_MyD88 Rank (after),[3],212
same,P3_MyD88 Rank (before),[4],3377
YLKWGYPRFWDRLRCA,P3_MyD88 Rank (after),[3],216
same,P3_MyD88 Rank (before),[4],1602
FLSYLALEKRFSPIGQ,P3_MyD88 Rank (after),[1],515
same,P3_MyD88 Rank (before),[2],1343
EWVKNSLLQYLDSQFE,Rank (after),[11],151
same,Rank (before),[12],166
same,Population,[13],0.00886%
YTALNNSGFNTFRDND,Rank (after),[14],188
same,Rank (before),[15],1704
DPQDLDGCYERLVSLF,Rank (after),[11],393
same,Rank (before),[12],2837
YPQELDWCYERLVSLL,P8_MyD88 Rank (after),[7],762
same,P8_MyD88 Rank (before),[8],2102
PQDLGWFYERLISQILK,Rank (after),[11],386
same,Rank (before),[12],1201
YITRFDDIQQIELFWD,P8_MyD88 Rank (after),[7],688
same,P8_MyD88 Rank (before),[8],2121
RKGDLISDELRIPLEE,P3_MyD88 Rank (after),[1],526
same,P3_MyD88 Rank (before),[2],2656
DPQGLDWFYERLFSQM,Rank (after),[11],396
same,Rank (before),[12],2679
SFTDHLYAALVQAGIL,Rank (after),[11],126
same,Rank (before),[12],137
same,Population,[13],0.0123%
WDFSGNIEQFWDRLYY,P8_MyD88 Rank (after),[7],758
same,P8_MyD88 Rank (before),[8],1570
PSEVRVVDDGSVSPLEM,P3_MyD88 Rank (after),[3],211
same,P3_MyD88 Rank (before),[4],1126
DPQDLDWFYERLEPV,P8_MyD88 Rank (after),[1],530
same,P8_MyD88 Rank (before),[2],2783
CALCELLQILHARGLF,P8_MyD88 Rank (after),[7],725
same,P8_MyD88 Rank (before),[8],1345
LVAHEISKKMKIFRP,Rank (after),[14],413
same,Rank (before),[15],2302
LKVEIWLQTLEKAEKP,Rank (after),[14],440
same,Rank (before),[15],2472
SSFLQGLWRLLELSKK,P3_MyD88 Rank (after),[1],534
same,P3_MyD88 Rank (before),[2],3122
DPQDLDWFYERLLSR,P8_MyD88 Rank (after),[3],236
same,P8_MyD88 Rank (before),[4],467
DPQDLDCYYERLVSLF,Rank (after),[5],1004
same,Rank (before),[6],2741
SSFREGLWRLLELRKN,P3_MyD88 Rank (after),[9],588
same,P3_MyD88 Rank (before),[10],3169
KERPFGAQRAEKCVP,Rank (after),[14],447
same,Rank (before),[15],3673
DPQDLDWFYERLVILF,Population,[13],0.0131%
SAAYYEFGERLIGRVE,Rank (after),[5],873
same,Rank (before),[6],3705
EWSREQLRPALKESLP,P3_MyD88 Rank (after),[3],239
same,P3_MyD88 Rank (before),[4],2184
LGYHWVDWEYCVGIED,Rank (after),[11],479
same,Rank (before),[12],3233
DPQDPDRNYERMVSRL,P8_MyD88 Rank (after),[9],661
same,P8_MyD88 Rank (before),[10],2961
DQHRDLPRGKAIKPEILG,Rank (after),[14],168
same,Rank (before),[15],2067
DHHLDLPRGKRLNRKFW,Rank (after),[14],153
same,Rank (before),[15],944
WWIQALAEVANMAGED,Rank (after),[11],134
same,Rank (before),[12],158
same,Population,[13],0.00925%
RERPVGAQRGVRSLAT,Rank (after),[14],469
same,Rank (before),[15],3286
DWAWDYLLPNLEGSAG,Rank (after),[11],432
same,Rank (before),[12],2483
DRSIWDRLLYSLHVTE,Rank (after),[5],996
same,Rank (before),[6],3141
YTALTNSGCPTFCVIA,Rank (after),[14],444
same,Rank (before),[15],1694
YAFTGHLHRDLVQRGL,Rank (after),[14],427
same,Rank (before),[15],1521
NGHESEIIKEIVDTFM,P3_MyD88 Rank (after),[3],243
same,P3_MyD88 Rank (before),[4],1232
GFLYQALARDGFKIFM,Rank (after),[14],426
same,Rank (before),[15],1811
YSQHDVLWVKNFLSHI,Rank (after),[5],1025
same,Rank (before),[6],2122
YTALTAAANLSGW,Population,[16],0.00378%
DPLVMVWLYVRPVSLF,P8_MyD88 Rank (after),[1],556
same,P8_MyD88 Rank (before),[2],2609
SENMRPARGRWMNWC,P3_MyD88 Rank (after),[9],654
same,P3_MyD88 Rank (before),[10],3000
WMRALAYIVNIVGESS,P8_MyD88 Rank (after),[3],268
same,P8_MyD88 Rank (before),[4],529
YLRRSVFQTMLARRTE,Rank (after),[5],899
same,Rank (before),[6],2077
YAASPWWFDELVKILE,Rank (after),[5],906
same,Rank (before),[6],1733
SRFREGLWRLLKLSKK,P3_MyD88 Rank (after),[7],715
same,P3_MyD88 Rank (before),[8],3278
DPQDLDCFYERLVNLF,Rank (after),[11],408
same,Rank (before),[12],2740
NDLLHVWSSKANSLVG,P3_MyD88 Rank (after),[1],527
same,P3_MyD88 Rank (before),[2],3389
SSFREALWRLLGLSEK,P3_MyD88 Rank (after),[3],279
same,P3_MyD88 Rank (before),[4],3225
RLLKWKEALHQFHSLVG,P3_MyD88 Rank (after),[3],277
same,P3_MyD88 Rank (before),[4],2580
SSFREGLWRLL*LSKK,Population,[16],0.00291%
YYLDPSHLRKQSGESERL,P3_MyD88 Rank (after),[7],728
same,P3_MyD88 Rank (before),[8],1459
CLLLSVFQTLFARRTE,Rank (after),[5],877
same,Rank (before),[6],1353
SSFREALWRLLELSKN,Rank (after),[14],167
same,Rank (before),[15],3222
